Experiments:
TASK-1 = test: C-PAF-sensitive TASK-1 current in mouse ventricular myocytes dialyzed with PKCε peptides; assay type: cell-based; conditions: modified Tyrode's (high K+), scrambled peptide in pipette
Method: Mouse ventricular myocytes were isolated using a retrograde coronary perfusion method previously published (Kuznetsov V et al. (1995) Circ Res 76: 40-52). All the experiments were carried out according to the guidelines issued by the IACUC of Columbia University. Adult mice 2 or 3 months old, were anaesthetized with a xylazine and ketamine mix and heparinized, the heart was quickly removed and the ascending aorta was connected to the outlet of a Langendorff column and perfused with 20-25 ml of a buffer solution (37° C.) containing (mM):NaCl, 112; KCl, 5.4; NaHCO3, 4.2; MgCl2, 1.6; HEPES, 20; glucose, 5.4; NaH2PO4, 1.7; taurine, 10; L-glutamine, 4.1; MEM amino acids solution, 2%; MEM vitamin solution, 1%; adjusted to pH 7.4, and equilibrated with 100% O2. Next, the heart was perfused with an enzyme solution containing collagenase (0.2 mg/ml; Worthington Type II) and trypsin (0.04 mg/ml) at 35° C. for 10-12 min. After this perfusion, the atria were removed and the ventricles minced and transferred to a 50 ml flask with an enzyme solution containing collagenase (0.45 mg/ml), trypsin (0.08 mg/ml), Ca^2+ (0.75 mM) and bovine serum albumin (BSA; 4.8 mg/ml). The flask was shaken vigorously for 5-10 min at 32° C. before the supernatant was removed and the cells were collected by centrifugation, this operation was repeated two or three times and additional disaggregated cells were collected. After centrifugation, the myocytes were resuspended in the buffer solution containing Ca^2+ (0.75 mM) and BSA and stored at room temperature until use. Rod-shaped, Ca^2+-tolerant myocytes, obtained with this procedure, were used within 6 h of dissociation. Measurements were performed only on quiescent myocytes with clear striations
The myocyte suspension or the coverslip with CHO cells was placed into a perfusion chamber, mounted on the stage of an inverted microscope. Unless otherwise indicated, CHO cells were superfused at room temperature with standard external Tyrode's buffer, containing (mM): NaCl, 140; KCl, 5.4; CaCl2, 1; MgCl2, 1; HEPES, 5; glucose, 10; adjusted to pH 7.4. Recordings were begun after the current reached a stable baseline (usually 3 to 4 min after initial cell rupture). In myocytes, TASK-1 current is small and exists in the presence of numerous larger K^+ currents. […] Membrane potential and current were measured in the whole cell configuration using borosilicate glass pipettes with a tip resistance between […] and filled with a pipette solution containing (mM): aspartic acid, 130; KOH, 146; NaCl, 10; CaCl2, 2; EGTA, 5; HEPES, 10; MGATP, 2; pH 7.2. […] Myocytes treated with the peptides were monitored continuously beginning immediately after rupture to detect the occurrence of any arrhythmias during dialysis of the peptide. […]

[1] = tested on: mouse ventricular myocytes; test: Action potentials in paced mouse ventricular myocytes (current clamp); assay type: cell-based; conditions: C-PAF 185 nM
Method: Adult mice, 2-3 months old, were anesthetized with ketamine/xylazine and their hearts were removed according to protocols approved by the Columbia University-IACUC. Experiments were performed on single rod-shaped, quiescent ventricular myocytes dissociated using a standard retrograde collagenase perfusion (Kuznetsov V et al. (1995) Circ Res 76: 40-52) from hearts of mice that were either wild-type (WT), or PAFR knockouts (KO). Both WT and KO mice were bred on a C57/B16 background. The derivation of the KO mice has been described previously (Hoffman, B F et al.(1996) J Cardiovasc Electrophysiol 7:120-133).
Prior to electrophysiological measurements, cells were placed into the perfusion chamber and superfused at room temperature with Tyrode's buffer (in mM: NaCl, 140; KCl, 5.4; CaCl2 1; MgCl2, Hepes, 5; Glucose, 10; pH 7.4). […]
Current and voltage protocols were generated using Clampex 7.0 software applied by means of an Axopatch 200B amplifier and a Digidata 1200 interface (Axon Instruments). […] Data were analyzed using pCLAMP 8.0 (Axon) and Origin 6.0 (Microcal) and are presented as mean±SEM. Steady-state current was determined by computer calculation of average current over a time period of at least 5 s. […] Records have been corrected for the junction potential, which was measured to be 9.8 mV.

SMILES: CCCCCCCCCCCCCCCCOC[C@H](COP(=O)([O-])OCC[N+](C)(C)C)OC(=O)NC [C-PAF, carbamyl-platelet-activating factor]
- reversal potential of C-PAF-sensitive current (TASK-1): −26.1±1.9 mV
- cells in which membrane potential returned to normal during agonist perfusion ([1]; 3 min perfusion): 8 of 9
- delay before C-PAF-evoked responses ([1]; paced WT myocytes): 94 ± 21 s

Source: US8097650B2, “Method of treating a condition associated with phosphorylation of TASK-1” (The Trustees of Columbia University In The City of New York, priority 2005, dated 2012)
